# Measurements: PubChem BioAssay (NCI)
#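 48-hour exposure; five concentrations; linearly interpolated endpoints. Definition used: TGI = concentration required for complete inhibition of growth.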
# Columns and labels:
# Assay in all cases: inhibition of tumour cell growth, NCI panel, 48 h
# NCI-H226 lung = tested on: NCI-H226 lung
# NCI-H460 lung = tested on: NCI-H460 lung
# SF-539 CNS = tested on: SF-539 CNS
# MCF7 breast = tested on: MCF7 breast
# BT-549 breast = tested on: BT-549 breast
# RPMI-8226 leukemia = tested on: RPMI-8226 leukemia
# CCRF-CEM leukemia = tested on: CCRF-CEM leukemia
# OVCAR-4 ovarian = tested on: OVCAR-4 ovarian
# HCT-116 colon = tested on: HCT-116 colon
# T-47D breast = tested on: T-47D breast
# SN12C renal = tested on: SN12C renal
# MOLT-4 leukemia = tested on: MOLT-4 leukemia
# HOP-92 NSCLC = tested on: HOP-92 NSCLC
# MDA-MB-231 breast = tested on: MDA-MB-231 breast
# HOP-62 NSCLC = tested on: HOP-62 NSCLC
# OVCAR-5 ovarian = tested on: OVCAR-5 ovarian
# SK-MEL-28 melanoma = tested on: SK-MEL-28 melanoma
# SK-MEL-5 melanoma = tested on: SK-MEL-5 melanoma
# NCI-H23 lung = tested on: NCI-H23 lung
# ACHN renal = tested on: ACHN renal
SMILES,TGI (NCI-H226 lung) [µM],TGI (NCI-H460 lung) [µM],TGI (SF-539 CNS) [µM],TGI (MCF7 breast) [µM],TGI (BT-549 breast) [µM],TGI (RPMI-8226 leukemia) [µM],TGI (CCRF-CEM leukemia) [µM],TGI (OVCAR-4 ovarian) [µM],TGI (HCT-116 colon) [µM],TGI (T-47D breast) [µM],TGI (SN12C renal) [µM],TGI (MOLT-4 leukemia) [µM],TGI (HOP-92 NSCLC) [µM],TGI (MDA-MB-231 breast) [µM],TGI (HOP-62 NSCLC) [µM],TGI (OVCAR-5 ovarian) [µM],TGI (SK-MEL-28 melanoma) [µM],TGI (SK-MEL-5 melanoma) [µM],TGI (NCI-H23 lung) [µM],TGI (ACHN renal) [µM]
CCOC(=O)CSc1nnc(CSc2nc(-c3ccccc3)c(-c3ccccc3)[nH]2)n1-c1ccccc1,> 73.6,> 100,41.6,> 100,> 100,> 100,> 100,48.3,> 100,89.7,34.9,> 93.8,> 100,> 100,> 100,> 100,> 100,> 100,> 100,35.5
CCOC(=O)NC(C(=O)OCC)(N1CCN(c2cc3c(cc2F)c(=O)c(C(=O)O)cn3CC)CC1)C(F)(F)F (configuration not stated),> 100,> 100,> 100,> 100,> 100,> 100,> 100,> 100,> 100,> 100,> 100,> 100,> 100,> 100,> 100,> 100,0.533,> 100,> 100,> 100
Cn1cc(S(=O)(=O)NC(=O)Nc2ccc(Cl)cc2)c2ccccc21,> 100,> 100,> 100,> 100,> 100,> 100,> 100,> 100,> 100,> 100,> 100,> 100,> 100,> 100,> 100,> 100,> 100,> 100,> 100,> 100
CC(=O)Nc1ccc(-c2nc3ccccc3s2)cc1C,> 100,> 100,> 100,> 100,> 100,> 100,> 100,> 100,> 100,> 100,–,> 100,> 100,> 100,> 100,–,> 100,> 100,> 100,> 100
C[N+](C)(C)/N=C/c1ccc(O)c(O)c1,> 100,> 100,> 100,> 100,> 100,> 100,> 100,> 100,> 100,> 100,> 100,> 100,> 100,> 100,> 100,> 100,> 96.4,> 100,> 100,> 100
CCOC(=O)C1=c2[nH]c3cccc4cccc(c43)n2C(=O)CC1c1ccccc1 (configuration not stated),> 100,> 100,–,> 100,> 100,> 100,> 100,> 100,> 100,> 100,> 100,> 100,> 100,> 100,> 100,> 100,> 100,> 100,> 100,> 100
COC(=O)C(Cc1ccccc1)NP(=O)(O)OCC1OC(n2cc(I)c(=O)[nH]c2=O)CC1O (configuration not stated),> 100,> 100,> 100,> 100,> 100,> 100,> 100,> 100,> 100,> 100,> 100,> 100,> 100,> 100,> 100,–,> 100,> 100,> 100,> 100
COc1cccc(C2ON=C(c3ccccc3)N2C23CC4CC(CC(C4)C2)C3)c1 (configuration not stated),> 10,> 10,> 10,> 10,> 10,> 10,> 10,> 10,> 10,> 10,> 10,> 10,> 10,> 10,> 10,> 10,> 10,> 10,> 10,> 10
C=CCc1cc(C=C(C#N)C#N)cc(OC)c1O,> 100,> 100,> 100,> 100,> 100,> 100,> 100,> 100,> 100,> 100,–,> 100,> 100,> 100,–,> 100,> 100,> 100,> 100,> 100
COC1(OC)N=C(N)C2(C#N)C3(C(=O)N(C(C)C)N=C3C)C12C#N (configuration not stated),> 100,> 100,> 100,> 100,> 100,> 100,> 100,> 100,> 100,> 100,> 100,> 100,> 100,> 100,> 100,> 100,> 100,–,> 100,> 100
O=C(NNCC(F)(F)F)c1ccncc1,> 100,> 100,> 100,> 100,> 100,> 100,> 100,> 100,> 100,> 100,> 100,> 100,> 100,> 100,> 100,> 100,> 100,> 100,> 100,> 100
Cc1cc(S(=O)(=O)NC2=NC(c3ccccc3)c3cc(Cl)ccc3N2)c(S)cc1Cl (configuration not stated),> 100,> 100,> 100,> 100,> 100,> 100,> 100,> 100,> 100,> 100,> 100,> 100,> 100,> 100,> 100,> 100,> 100,> 100,> 100,> 100
Cc1c(/C=N/NC(=S)Nc2ccccc2)c(=O)n(-c2ccccc2)n1C,> 100,> 100,> 100,> 100,> 100,> 100,> 100,> 100,> 100,> 100,–,> 100,> 100,> 100,> 100,–,> 100,> 100,> 100,> 100
COC(=O)c1c2c(cc3c1CC1(C3)Cc3cc4c(c(C(C)=O)c3C1)CCC4)C=CC2 (configuration not stated),> 31.6,> 31.6,> 31.6,> 31.6,> 31.6,> 31.6,> 31.6,> 31.6,> 31.6,> 31.6,> 31.6,> 31.6,> 31.6,> 31.6,> 31.6,> 31.6,> 31.6,> 31.6,> 31.6,> 31.6
COc1cc(/C=C/c2nc(N)nnc2C)cc(OC)c1OC,> 55.4,> 58.5,–,> 100,> 64,52.5,55.4,> 73.7,> 53.9,> 100,> 100,> 90.7,> 100,> 100,29,> 58.9,> 100,52.2,> 68.1,> 56.1
COc1cccc(CCNc2c(C#N)c3nc4ccccc4n3c3ccccc23)c1,> 100,> 100,> 100,> 100,> 100,> 100,> 100,> 100,> 61.5,> 52.6,> 70,> 100,> 100,> 100,> 100,> 100,> 100,0.872,> 30.5,> 100
S=C(N/N=C/c1ccccn1)Nc1ccc(Cl)cc1,3.33,> 100,14.4,> 100,> 68.1,> 26.4,1.92,> 100,> 88.5,> 100,> 100,> 100,> 57.6,> 100,17.4,> 100,> 100,15.5,> 100,1.66
COC(=O)c1ccc(NCc2c(O)ccc(O)c2Br)cc1Cl,> 100,41.9,30.4,32.2,24.7,> 100,> 100,44.2,33.3,43.3,25.7,40.9,28.4,29.4,–,28.6,30.7,34.6,32.9,30.6
N#CCCN(CCC#N)c1ccc(C(N=Nc2ccccc2)=Nc2ccc(Cl)cc2)cc1,> 100,> 100,> 100,> 100,> 100,> 100,> 100,> 100,> 100,> 100,> 100,> 100,> 100,> 100,> 100,> 100,> 100,> 100,> 100,> 100
O=C(O)CC1NC(/C(=C/c2ccccc2O)NC(=O)c2ccccc2)OC1=O (configuration not stated),> 79.5,> 100,66.9,> 100,52,> 100,> 100,> 38.2,> 100,> 100,> 100,> 100,> 100,> 68.3,29.5,> 100,> 100,> 100,> 100,> 51
O=c1cc(N2CCCC2)[nH]c(=O)n1-c1ccc(F)cc1,50.8,> 100,> 100,> 100,> 100,> 100,> 100,> 100,> 100,> 100,> 100,> 100,> 100,> 100,> 100,> 100,> 100,–,> 100,> 100
O=C1C(Cl)C2(CC(/C=C/c3ccccc3O)=NN2c2cccc(S(=O)(=O)O)c2)N1c1nc2ccccc2s1 (configuration not stated),51.2,34.6,36.5,31.8,34.9,35.5,34.7,27.4,31,37.4,27.8,47.7,37,74.6,–,45.8,71.2,26.1,33.2,53
Cc1ccc(S(=O)(=O)N2c3ccccc3[C@H]3CCC=C[C@H]32)cc1,47.3,> 64.7,34,> 100,> 100,43,> 87.2,> 100,19.6,> 100,> 63.1,> 73.8,35.4,> 100,67.4,> 100,> 96.1,> 97.5,52.3,> 93.3
O=C(NNC(=S)Nc1ccc(Br)cc1)c1cc(-c2ccccc2)nc2ccccc12,73.7,43.5,31.3,47.1,60.9,53.7,42.8,46.5,30.4,60.9,37.1,52.9,43.4,65.9,42,79.3,53,30.5,55.8,> 100
